Results from patent EP0349061B1, “Immunosuppressant agent” (Merck & Co., Inc., priority 1988, dated 1990).
Like-named read-outs stand apart in the source and are kept apart here.

Test system: mouse T lymphocytes
Assay: T-cell proliferation assay (ionomycin plus PMA induced T-cell stimulation, tritiated thymidine uptake)
Format: cell-based, C57B1/6 mice
Conditions: for IC50: read-out: IC₅₀, inhibition of T-cell proliferation
Procedure: The principle of this assay is to measure the proliferation of mouse T lymphocytes stimulated with the combination of ionomycin plus PMA. A positive sample in this assay will inhibit T-cell proliferation, as indicated by reduced tritiated thymidine uptake.
Purified demethimmunomycin, as prepared by HPLC above, was dissolved in absolute ethanol at 1 mg/ml.
Spleens from C57B1/6 mice were taken under sterile conditions and gently dissociated in ice-cold RPMI 1640 culture medium (GIBCO, Grand Island, N.Y.) supplemented with 10% heat-inactivated fetal calf serum (GIBCO). Cells were pelleted by centrifugation at 1500 rpm for 8 minutes. Contaminating red cells were removed by treating the pellet with ammonium chloride lysing buffer (GIBCO) for 2 minutes at 4°C. Cold medium was added and cells were again centrifuged at 1500 rpm for 8 minutes. T lymphocytes were then isolated by separation of the cell suspension on nylon wool columns as follows: Nylon wool columns were prepared by packing approximately 4 grams of washed and dried nylon wool into 20 ml plastic syringes. The columns were sterilized by autoclaving at 250°F [120°C] for 30 minutes. Nylon wool columns were wetted with warm (37°C) culture medium and rinsed with the same medium. Washed spleen cells resuspended in warm medium were slowly applied to the nylon wool. The columns were then incubated in an upright position at 37°C for 1 hour. Non-adherent T lymphocytes were eluted from the columns with warm culture medium and the cell suspensions were spun as above.
Purified T lymphocytes were resuspended at 2.5 x 10⁵ cells/ml in complete culture medium composed of RPMI 1640 medium with 10% heat-inactivated fetal calf serum, […] glutamine, 1 mM sodium pyruvate, 2 x 10⁻⁵ M 2-mercaptoethanol and 50 »g/ml gentamycin. Ionomycin was added at 250 ng/ml and PMA at 10 ng/ml. The cell suspension was immediately distributed into 96 well flat-bottom microculture plates (Costar)(registered trade mark) at 200 »l/well. The control, being the medium without test drug, and various below-indicated dilutions of the sample (above-described purified demethimmunomycin) to be tested were then added in triplicate wells at 20 »l/well. L-679,934 was used as a standard. The culture plates were then incubated at 37°C in a humidified atmosphere of 5% CO₂-95% air for 44 hours. The proliferation of T lymphocytes was assessed by measurement of tritiated thymidine incorporation. After 44 hours of culturing, the cells were pulse-labelled with 2 »Ci/well of tritiated thymidine (NEN, Cambridge, MA). After another 4 hours of incubation, cultures were harvested on glass fiber filters using a multiple sample harvester. Radioactivity of filter discs corresponding to individual wells was measured by standard liquid scintillation counting methods (Betacounter). Mean counts per minute of replicate wells were calculated and the results expressed as percent inhibition of tritiated thymidine uptake (proliferation) as follows: [formula]
• 1. Mouse T cell cultures were pulsed with ³H-thymidine for 4 hours prior to harvesting at 48 hours. • 2. […] IC₅₀ = 1.4 ng/ml = 1.81 nM, for demethimmunomycin, (L-638,742), and generally in the range of 1.6 to 1.9 x 10⁻⁹ molar. • 4. Inhibition of T-cell proliferation by demethimmunomycin was reversed by the addition of 50»/ml of IL-2 (recombinant IL-2) at the initiation of culture.

[1] = Mus musculus, T-lymphocyte, 48 h

Which results are given for `CC[C@@H]1/C=C(\C)C[C@H](C)C[C@H](OC)[C@H]2O[C@@](O)(C(=O)C(=O)N3CCCC[C@H]3C(=O)O[C@H](/C(C)=C/[C@@H]3CC[C@@H](O)[C@H](O)C3)[C@H](C)[C@@H](O)CC1=O)[C@H](C)C[C@@H]2OC` [demethimmunomycin, 31-desmethoxy-31-hydroxy-L-683,590]?
inhibition at 0.0006 µg/mL [1]: 0%; inhibition at 0.0009 µg/mL [1]: 9%; inhibition at 0.0013 µg/mL [1]: 38.2%; inhibition at 0.0019 µg/mL [1]: 72.1%; inhibition at 0.0029 µg/mL [1]: 86.3%; inhibition at 0.0044 µg/mL [1]: 91.9%; inhibition at 0.0066 µg/mL [1]: 97.9%; IC50 (Mus musculus, T-lymphocyte): 1.4 ng/mL; IC50 (Mus musculus, T-lymphocyte, range generally found): 1.6 to 1.9 nM; IC50 (Mus musculus, T-lymphocyte, same value as 1.4 ng/ml, given in molar terms): 1.81 nM; Inhibition of T-cell proliferation on addition of IL-2 (addition of recombinant IL-2 at the initiation of culture): reversed
